In EP0118571A1, “Inhibitor of aldose reductase” (Kaken Pharmaceutical Co., Ltd., priority 1983, dated 1984):
Where two headings read alike, the source gives them in different places.

What was measured:
bovine lens AR (BLAR) = biological target: T1, bovine lens AR (BLAR) (Bos taurus, UniProt P16116); experiment: Aldose reductase (AR) activity assay, bovine lens AR (NADPH oxidation, DL-glyceraldehyde substrate); type: biochemical; conditions: for inhibition at 10 µM: inhibitor 10^-5M, read-out: Inhibition against enzyme activity (%) BLAR 10^-5M; for inhibition at 10 µM / inhibition at 1 µM / inhibition at 0.1 µM: 30°C, pH 6.2, 1 % propylene glycol; for inhibition at 1 µM: inhibitor 10^-6M, read-out: Inhibition against enzyme activity (%) BLAR 10^-6M; for inhibition at 0.1 µM: inhibitor 10^-7M, read-out: Inhibition against enzyme activity (%) BLAR 10^-7M
T1 construct: BLAR and RLAR were purified according to the method of Inagaki et al; from tissue; host or cells: bovine lens
Description: (§1) The inhibitory activitiy against AR of LARI was determined according to the following method. As reference examples, there were employed quercitrin and two flavone derivatives having a relatively similar structure to that of LARI, i.e. 6,4'-dihydroxy-5,7,8,3'-tetramethoxyflavone and 5,4'-dihydroxy-6,7,8,3'-tetramethoxyflavone (hereinafter referred to as "Ref-1" and "Ref-2", respectively).
(§2) Rat lenses were removed from eyes of rats of the Wistar strain weighing 200 to 250 g. Bovine eyes were obtained from a local abattoir, and the lenses were removed and frozen until needed.
(§3) All compounds to be subjected to examination were dissolved in propylene glycol being a useful solvent of low toxicity for some water-insoluble drugs. A 10^-3M solution was prepared and diluted to the desired concentration with propylene glycol. To the reaction mixture were added aliquots of the diluted solution to yield concentrations of 10^-8M to 10^-5M and a propylene glycol concentration of 1 %.
(§4) AR assays were conducted according to the procedure of Hayman and Kinoshita (J. Biol. Chem. 240, p. 877 (1965)), except for the addition of ammonium sulfate instead of lithium sulfate to the reaction mixture. Assays were performed at 30°C. in 0.1 M sodium phosphate buffer (pH 6.2) containing 0.4 M ammonium sulfate, 10 mM DL-glyceraldehyde and 0.16 mM NADPH and the enzyme (0.010 to 0.016 unit) in a total volume of 1.0 ml. The effects of inhibitors on the enzyme activity were determined in the reaction mixture containing 10 µl. of each inhibitor solution at the desired concentration. The blank reference to correct for non-specific reduction of NADPH contained all of the above compounds except the above DL-glyceraldehyde. The reaction was initiated by the addition of the above DL-glyceraldehyde, and the rate of NADPH oxidation was followed by recording the decrease in absorbance at 340 nm. on a Gilford model 250 spectrophotometer.
(§5) BLAR and RLAR were purified according to the method of Inagaki et al (Archs. Biochem. Biophys. 216, p. 337 (1982)). Briefly, a 40 to 75 % ammonium sulfate fraction was subjected to chromatography on DEAE-Sephacel, followed by two column chromatographic steps, i.e. affinity chromatography using Matrex gel red A and gel filtration on Sephadex G-75.
(§6) The concentration of inhibitor needed to elicit a 50 % inhibition (IC50) was determined according to the method of Kador et al (Docum. Ophthal. Proc. Series 18, p. 117 (1979)).

rat lens AR (RLAR) = biological target: T2, rat lens AR (RLAR) (Rattus norvegicus, UniProt P07943); experiment: Aldose reductase (AR) activity assay, rat lens AR (NADPH oxidation, DL-glyceraldehyde substrate); type: biochemical; conditions: for inhibition at 10 µM: inhibitor 10^-5M, read-out: Inhibition against enzyme activity (%) RLAR 10^-5M; for inhibition at 10 µM / inhibition at 1 µM / inhibition at 0.1 µM: 30°C, pH 6.2, 1 % propylene glycol; for inhibition at 1 µM: inhibitor 10^-6M, read-out: Inhibition against enzyme activity (%) RLAR 10^-6M; for inhibition at 0.1 µM: inhibitor 10^-7M, read-out: Inhibition against enzyme activity (%) RLAR 10^-7M
T2 construct: BLAR and RLAR were purified according to the method of Inagaki et al; from tissue; host or cells: rat (Wistar) lens
Description: as §1, §2, §3, §4, §5, §6

[1] = read-out: IC50 (concentration of inhibitor needed to elicit 50 % inhibition) BLAR
[2] = purified RLAR, Table 2, read-out: IC50 (M) X 10^6 RLAR
[3] = read-out: IC50 (concentration of inhibitor needed to elicit 50 % inhibition) RLAR

| SMILES | inhibition at 10 µM (bovine lens AR (BLAR)) | inhibition at 1 µM (bovine lens AR (BLAR)) | inhibition at 0.1 µM (bovine lens AR (BLAR)) | IC50 (bovine lens AR (BLAR); [1]) | inhibition at 10 µM (rat lens AR (RLAR)) | inhibition at 1 µM (rat lens AR (RLAR)) | inhibition at 0.1 µM (rat lens AR (RLAR)) | IC50 (rat lens AR (RLAR); [2]) | IC50 (rat lens AR (RLAR); [3]) | inhibitory activity against AR, times as potent as that of quercitrin (rat lens AR (RLAR); relative to quercitrin, AR in general (RLAR and BLAR not distinguished)) | IC50 (bovine lens AR (BLAR); purified BLAR, Table 2, read-out: IC50 (M) X 10^6 BLAR) |
| --- | --- | --- | --- | --- | --- | --- | --- | --- | --- | --- | --- |
| COc1c(OC)c(OC)c2c(=O)cc(-c3ccc(O)c(O)c3)oc2c1OC [LARI, 3',4'-dihydroxy-5,6,7,8-tetramethoxyflavone] | 100% | 90% | 37% | 1.8e-07 M | 97% | 93% | 78% | 3e-08 M | 3.6e-08 M | about 17 times | – |
| COc1cc(-c2cc(=O)c3c(OC)c(O)c(OC)c(OC)c3o2)ccc1O [Ref-1, 6,4'-dihydroxy-5,7,8,3'-tetramethoxyflavone] | 63% | 19% | 0% | – | 58% | 22% | 6% | – | – | – | – |
| COc1cc(-c2cc(=O)c3c(O)c(OC)c(OC)c(OC)c3o2)ccc1O [Ref-2, 5,4'-dihydroxy-6,7,8,3'-tetramethoxyflavone] | 56% | 19% | 0% | – | 40% | 15% | 0% | – | – | – | – |
| C[C@@H]1O[C@@H](Oc2c(-c3ccc(O)c(O)c3)oc3cc(O)cc(O)c3c2=O)[C@H](O)[C@H](O)[C@H]1O [quercitrin] | 66% | 32% | 0% | 3.3e-06 M | 84% | 56% | 38% | 4.9e-07 M | 4.9e-07 M | – | 3.3e-06 M |
